Measured values: patent US20230181604A1, “Use of Mitochondria-Targeted Antioxidants to Treat Severe Inflammatory Conditions” (Mitotech S.A., priority 2020, published 2023)

Tests used:
mice [1] = experiment: Lethal shock by toxic dose of C12 TPP, survival; assay type: in vivo
Method: (§1) SkQ1 protected mice in three different mouse models of severe critical conditions. The first critical condition was induced by injection of a suspension of isolated liver mitochondria into the mouse tail vein. The second critical condition was induced by the sharp cold shock of placing mice for 90 minutes in a −20° C. environment. The third condition was induced by administration of a toxic concentration the of lipophilic cation C12 TPP, whose formula is shown below
In the next experiment a critical condition in mice was induced by i/v injection of a toxic dose of C12 TPP (34 μmole/kg). Considering the membrane-penetrating and membrane-disruptive properties of C12 TPP, it can be expected that the lethal effect of i/v injection of C12 TPP occurs due to disruption of cells in the vascular system, including vascular endothelial cells.
This set of experiments was continued using the lethal shock was caused by toxic concentrations of C12 TPP. Two dosages of C12 TPP were used: 34 μmol/kg C12 TPP (FIG. 12) or 42 μmol/kg C12 TPP (FIG. 13). In the data shown in FIG. 12, SkQ1 (1.5 μmol/kg dosage) was administered to each of the mice both at 4.5 hours before C12 TPP and 0.5 hours after C12 TPP administration. Without SkQ1, about 80% of mice died within 32 hours after the injection of C12 TPP; with SkQ1 the death rate was reduced to 40%. In the experiment described in FIG. 13, the amount of C12 TPP was increased to 42 μmol/kg. […] In the experimental group, SkQ1 was administered once within 1 hour after C12 TPP treatment. In the SkQ1 treatment group ⅓ of the animals survived (FIG. 13).

mice [2] = experiment: Cold shock (90 minutes at −20° C.), survival; assay type: in vivo
Method: as §1
In the next experiment, critical condition was caused by a completely different stress, namely by cold shock resulting from incubating mice for 1.5 hours at −20° C. It can be seen in FIG. 8 that cold shock led to dramatic increase of mortality between days 5 and 8, resulting in a survival rate of 40%.
(§2) In the next series of experiments, it was investigated whether animals can be rescued by SkQ1 treatment administered simultaneously with the challenge or even after the challenge.

mice [3] = experiment: Shock by injection of isolated liver mitochondria into the tail vein, survival; assay type: in vivo; conditions: for Mortality after mitochondria injection: C12 TPP instead of SkQ1
Method: as §1
The injection of mitochondria had no effect on survival during the first day (100% of the animals survived). However only 60% of animals survived the next two days. This survival rate persisted for at least 16 days. […] In this experiment a strong reduction in weight was clearly observed in the first 3 days after injection of mitochondria. Then the surviving animals began to recover—mortality disappeared, and body weight began to increase. In a control experiment, C12 TPP was used instead of SkQ1. In the case of C12 TPP, 20% of mice died in the first half day after the injection of mitochondria, and in two days the mortality had grown to 80%.
as §2

CD-1 mice [4] = experiment: Acute toxicity, subcutaneous administration; assay type: in vivo; conditions: for LD50: subcutaneous
Excerpt: The acute toxicity of SkQ1 solution administered by subcutaneous administration was studied in SPF male and female CD-1 mice.

CD-1 mice [5] = experiment: 28-day chronic toxicity with 14-day recovery, subcutaneous; assay type: in vivo
Method: SkQ1 solution 28-day chronic toxicity with 14-day recovery was studied in SPF male and female CD-1 mice at SkQ1 dosage of 0.6, 2.5, and 10 mg/kg administered subcutaneously, once daily. At 2.5 mg SkQ1/kg no adverse effects were identified (NOAEL) either at the end of the dosing or at the end of recovery. […] Peritonitis stemmed from the local ulcerative action of the formulation, while the adverse reactions of systems/organs were apparently the consequences of peritonitis.

[6] = test system: human vascular endothelial cells; experiment: VE-cadherin study of endothelial cell-to-cell contacts after SIRS/sepsis patient serum (western blot, fluorescence microscopy); assay type: cell-based
Method: The mitochondrially targeted antioxidants disclosed herein can prevent deconstruction of cell-to-cell contacts between human vascular endothelial cells in culture when these cells are treated with blood serum samples from patients with SIRS or sepsis. Results of a VE-cadherin western blot are presented on FIG. 3, wherein a cell culture of human endothelial cells is pretreated with different dosages of SkQ1, then exposed to serum from patients diagnosed with sepsis. […] In FIG. 4, blood samples are taken from patients with diagnosed SIRS, with the patients age 18-75 years. A cell culture of human endothelial cells is pretreated with different dosages of SkQ1, then treated with 5-10% serum from the SIRS blood samples. At the top of FIG. 4, the VE-cadherin (fluorescence microscopy) c resembles the VE-cadherin at the bottom of FIG. 4 (SIRS serum+200 nM SkQ1). Actin and nucleus visualizations in FIG. 4 correspond with VE-cadherin observations.
Blood samples were taken from patients ages 18-75 years with diagnosed SIRS. Cell cultures of human endothelial cells were pretreated with different amounts of SkQ1, after which the cultures were treated with 5-10% serum from the SIRS blood samples. A one hour VE-cadherin study was performed by fluorescent microscopy followed by western-blot analysis. Results of the experiment are presented on FIG. 3 (western blot) and FIG. 4 (microscopy).

[7] = test system: H5N1 influenza virus (strain chicken/Kurgan/5/2005); assay type: in vivo, balb\c mice
TNFα = TNFα concentration in blood after shock; assay type: in vivo, mice; conditions: intravenous injection of liver mitochondria, i/p SkQ1
IL-6 = IL-6 concentration in blood after shock; assay type: in vivo, mice; conditions: intravenous injection of liver mitochondria, i/p SkQ1
[8] = SkQ1 bioavailability study, LCMS/MS blood concentration after i/v, i/p, s/c injection; assay type: in vivo; conditions: Wistar rats, 2 mg\kg
Method: The bioavailability of SkQ1 was determined after using different methods of administration. SPF category Wistar rats were used. SkQ1 concentration in blood samples was measured using an LCMS/MS method SkQ1 was administered at 2 mg\kg, and blood samples were taken at the indicated time points. Administration was by intravenous injection (FIG. 1A), intraperitoneal injection (FIG. 1B), or subcutaneous injection (FIG. 1C). Total SkQ1 dose was calculated as area under the curve (AUC) as shown at left of FIG. 1D. SkQ1 bioavailability was normalized to that of i/v administration and is shown at the right side of FIG. 1D.

[9] = SkQ1 blood concentration with subcutaneous slow-release infusion pumps; assay type: in vivo; conditions: Wistar rats, slow-release infusion pumps introduced subcutaneously
Method: In the next experiment SkQ1 presence in the blood was prolonged by using slow-release infusion pumps introduced subcutaneously into Wistar rats. Blood samples from these animals were taken at timepoints indicated on FIG. 2, and SkQ1 concentration was measured as described above. […] This experiment also models administration of SkQ1 using intravenous infusion.

[10] = SkQ1 injected one minute after shock stimulus
[11] = H5N1-infected mice, i/p SkQ1 from day 2

With CCCCCCCCCCCC[P+](c1ccccc1)(c1ccccc1)c1ccccc1 [C12 TPP, reference compound] the “Mice died after C12 TPP” value (mice [1]; 34 μmol/kg C12 TPP without SkQ1, within 32 hours) was “about 80%”, the “Mortality caused by C12 TPP” value (mice [1]; 34 μmol/kg i/v, within 1 day) was 90% and the “Death after C12 TPP” value (mice [1]; 42 μmol/kg C12 TPP, control group, within 1.5 hours) was “all 12 animals died”. The “Mortality after cold shock” value (mice [2]; premedication and treatment, by the sixth day) was 100%, the “Mortality after mitochondria injection” value (mice [3]; first half day after injection) was 20% and the “Mortality after mitochondria injection” value (mice [3]; in two days) was 80%.
In the case of SkQ1, the “Findings in mice surviving toxic doses” value (CD-1 mice [4]; 14 days after administration of toxic doses) is reported as “signs of hepato- and nephrotoxicity”, the “Cause of lethal effect of high doses” value (CD-1 mice [4]; first hours after subcutaneous administration) is reported as “respiratory arrest” and the LD50 (CD-1 mice [4]; female CD-1 mice) is reported as 26.8 (23-31) mg SkQ1/kg. For the same molecule, the LD50 (CD-1 mice [4]; male CD-1 mice) was 31 (20.5-37.2) mg SkQ1/kg, the “Animals died (due to peritonitis)” value (CD-1 mice [5]; 10 mg/kg subcutaneous once daily, 28 days) was “≈ 15%” and the “NOAEL (no adverse effects identified)” value (CD-1 mice [5]; 28 days subcutaneous once daily, 14-day recovery) was 2.5 mg SkQ1/kg. For the same molecule, the “VE-cadherin western blot intensity versus control” value ([6]; 200 nM SkQ1 and sepsis patient serum) was “about equal intensity to the control”, the “VE-cadherin fluorescence microscopy versus control” value ([6]; SIRS serum + 200 nM SkQ1) was “resembles” and the “Deconstruction of cell-to-cell contacts between endothelial cells” value ([6]; cells treated with serum from patients with SIRS or sepsis, SkQ1 pretreatment) was “prevented”. The “Effect on mortality caused by C12 TPP” value (mice [1]; 34 μmol/kg C12 TPP, SkQ1 pretreatment) was “prevented”, the “Death rate after C12 TPP with SkQ1” value (mice [1]; 34 μmol/kg C12 TPP, SkQ1 1.5 μmol/kg 4.5 hours before and 0.5 hours after) was 40% and the “Fraction of animals survived” value (mice [1]; 42 μmol/kg C12 TPP, SkQ1 once within 1 hour after C12 TPP) was “⅓”. The “Mortality from cold shock” value (mice [2]; [10]) was “significantly reduced”, the “Death of animals after cold shock” value (mice [2]; premedication and after-shock treatment) was “completely prevented” and the “Death caused by influenza virus infection” value [7, 11] was “delayed”. The “Development of bad health condition” value [7, 11] was “delayed”, the “Protection against critical condition” value ([7]; intraperitoneal SkQ1 1000 nmoles/kg and 3000 nmoles/kg) was “protects against the critical condition” and the “Mortality from injection of mitochondria” value (mice [3]; [10]) was “significantly reduced”. For the same molecule, the “Survival after mitochondria injection” value (mice [3]; treatment five days before and five days after mitochondria injection) was 90%, the “Increase of blood concentration of TNFα” value (TNFα) was “almost completely suppressed” and the “Increase of blood concentration of IL-6” value (IL-6) was “almost completely suppressed”. The “SkQ1 bioavailability for intraperitoneal administration, of the bioavailability after intravenous administration” value ([8]; i/p, AUC normalized to i/v) was 35%, the “Persistence of SkQ1 in blood after injection” value ([8]; i/v, i/p or s/c injection) was “rapidly disappears from the blood” and the “SkQ1 bioavailability for subcutaneous administration, of the bioavailability after intravenous administration” value ([8]; subcutaneous, AUC normalized to i/v) was 44%. For the same molecule, the “SkQ1 concentration in the blood with slow release” value [9] was “can be stabilized”.
